# Laboratory results: patent publication US20230381122A1, “APPLICATION OF N1-DIHYDROCAFFEOYL-N10-CAFFEOYLSPERMIDINE IN PREPARATION OF DRUG, HEALTH PRODUCT OR FUNCTIONAL FOOD” (NINGXIA MEDICAL UNIVERSITY, priority 2022, published 2023)
# Tests used:
# [1] = Body weight of mice, PCPA-induced insomnia model; format: in vivo; conditions: for Body weight, after molding: after PCPA modeling, before administration; for Body weight, before molding: baseline before PCPA modeling; for Body weight, 3rd day of administration / Body weight, 7th day of administration: PCPA insomnia mice
# Experimental: (§1) The pharmacodynamic evaluation of N1-dihydrocaffeoyl-N10-caffeoylspermidine for improving sleep effect was performed in a mouse insomnia model induced by injection of para-chlorophenylalanine (PCPA). The sedative hypnotic effect of N1-dihydrocaffeoyl-N10-caffeoylspermidine in mice with insomnia were evaluated by behavioral evaluation methods, such as recording of the number of autonomous activities, recording of body weight and inducing sleep experiments in mice with pentobarbital sodium. Brain tissues was obtained to determine the levels of neurotransmitters 5-HT, 5-HIAA, GABA and Glu, and to explore the possible mechanism of the sleep improving effect of N1-dihydrocaffeoyl-N10-caffeoylspermidine.
# (§2) Healthy SPF grade male ICR mice (18-22 g) were obtained, which were provided by the animal experimental center of Ningxia Medical University (laboratory animal license number SCXK (Ningxia Medical University) 2020-0001). The mice were adaptively housed in a standard SPF grade laboratory with the same animal housing conditions for each group: ambient temperature (25° C.), relative humidity (50%-60%). The mice were free access to food and water.
# (§3) After adaptive feeding, for 2 days of continuous modeling, the normal control group was given normal saline (0.1 mL/10 g/d), and the remaining groups received an intraperitoneal injection of PCPA suspension (400 mg/kg/d).
# (§4) The mice in each group were administered sequentially from 8:00 am to 12:00 am daily for 7 days.
# (2) Body weight: the body weight of mice in each group was recorded before modeling, after modeling, on the 3rd, 7th day of drug administration, respectively.
# Glu = Glu level in brain tissue by ELISA; format: in vivo; conditions: PCPA insomnia mice
# Experimental: as §1, §3, §4
# (§5) After administration for 7 days, the mice were sacrificed by cervical dislocation, the brains were removed by decapitation on an ice table, ground evenly with a tissue homogenizer, and normal saline was added to make 10% brain tissue homogenate. The homogenate was centrifuged at 3000 r/min for 15 min at 4° C., then supernatants were collected, and levels of neurotransmitters 5-HT, 5-HIAA, Glu, and GABA were determined by ELISA.
# Glu/GABA = Glu/GABA ratio in brain tissue; format: in vivo, mice; conditions: for Glu/GABA: brain tissue, PCPA insomnia mice
# Experimental: as §1, §3, §4, §5
# GABA = GABA level in brain tissue by ELISA; format: in vivo, mice; conditions: for GABA: brain tissue, PCPA insomnia mice
# Experimental: as §1, §3, §4, §5
# 5-HIAA = 5-HIAA level in brain tissue by ELISA; format: in vivo, mice; conditions: for 5-HIAA: brain tissue, PCPA insomnia mice
# Experimental: as §1, §3, §4, §5
# [2] = system: PCPA-induced insomnia model of mice; assay: Righting reflex experiment with pentobarbital sodium: sleep latency and sleep duration; format: in vivo; conditions: for Sleep duration / Sleep latency: pentobarbital sodium 50 mg/kg i.p. one hour after administration on the 7th day, PCPA insomnia mice
# Experimental: as §1, §2, §3, §4
# (3) Righting reflex experiment to determine sleep duration: one hour after administration on the 7th day, mice in each group were intraperitoneally injected with pentobarbital sodium suspension (50 mg/kg), and the sleep latency and sleep duration of mice were recorded. (Sleep latency was recorded from the end of the intraperitoneal injection until the disappearance of the mouse righting reflex for more than 1 min; time from falling asleep to the recovery of the mouse righting reflex was recorded as sleep duration.)
# 5-HT = 5-HT level in brain tissue by ELISA; format: in vivo, mice; conditions: for 5-HT: brain tissue, PCPA insomnia mice
# Experimental: as §1, §3, §4, §5
# [3] = system: PCPA-induced insomnia model of mice; assay: Number of autonomous activities of mice, PCPA-induced insomnia model; format: in vivo; conditions: for Number of autonomous activities, before administration: baseline after PCPA modeling; for Number of autonomous activities, before administration / Number of autonomous activities, after last administration: number in 5 min; for Number of autonomous activities, after last administration: half an hour after administration on the 7th day, PCPA insomnia mice
# Experimental: as §1, §2, §3, §4
# (1) Number of autonomous activities: after grouping as above, the number of autonomous activities of mice in 5 min was recorded after successful modeling and half an hour after administration on the 7th day, respectively. Mice were acclimatized into the apparatus for 3 min before each recording.
# [4] = groups at all doses (2, 40, 100 mg/kg/d), p<0.001
# [5] = high dose 100 mg/kg/d for 7 days
# [6] = medium dose 40 mg/kg/d for 7 days
# [7] = groups at all doses (2, 40, 100 mg/kg/d), p<0.05
# [8] = 10 mg/kg/d, listed as positive drug
# [9] = positive drug group (melatonin 10 mg/kg/d)
# [10] = 10 mg/kg/d for 7 days, 10 mg/kg/day
# [11] = 10 mg/kg/d for 7 days, listed as positive drug, 10 mg/kg/day
# [12] = 10 mg/kg/d for 7 days, listed as positive drug
smiles,measurement,setting,value
"O=C(/C=C/c1ccc(O)c(O)c1)NCCCNCCCCNC(=O)CCc1ccc(O)c(O)c1 [(E)-3-(3,4-dihydroxyphenyl)-N-(3-((4-(3,4-dihydroxyphenyl)propanamido)butyl)amino) propyl) acrylamide]","Body weight, after molding",[1]; high dose group (100 mg/kg/d),26.87 ± 2.71 g
same,"Body weight, after molding",[1]; low dose group (2 mg/kg/d),27.08 ± 3.74 g
same,"Body weight, after molding",[1]; medium dose group (40 mg/kg/d),27.33 ± 2.13 g
same,"Body weight, before molding",[1]; high dose group (100 mg/kg/d),26.18 ± 2.78 g
same,"Body weight, before molding",[1]; low dose group (2 mg/kg/d),26.74 ± 2.63 g
same,"Body weight, before molding",[1]; medium dose group (40 mg/kg/d),25.95 ± 1.99 g
same,Body weight on the 3rd day of administration compared with the model group,[1]; [4],increased significantly
same,"Body weight, 3rd day of administration",[1]; high dose 100 mg/kg/d,32.36 ± 2.39 g
same,"Body weight, 3rd day of administration",[1]; low dose 2 mg/kg/d,32.02 ± 2.63 g
same,"Body weight, 7th day of administration",[1]; low dose 2 mg/kg/d,31.83 ± 2.77 g
same,"Body weight, 3rd day of administration",[1]; medium dose 40 mg/kg/d,31.34 ± 1.76 g
same,"Body weight, 7th day of administration",[1]; medium dose 40 mg/kg/d,32.12 ± 1.44 g
same,Glu,Glu; [5],63.90 ± 2.88 μmol/gprot
same,Glu,Glu; low dose 2 mg/kg/d for 7 days,64.84 ± 4.18 μmol/gprot
same,Glu/GABA,Glu/GABA; [5],7.66 ± 1.03
same,Glu/GABA,Glu/GABA; low dose 2 mg/kg/d for 7 days,7.23 ± 1.90
same,Glu/GABA,Glu/GABA; [6],7.17 ± 1.20
same,Glu/GABA values in brain tissues compared with the model group,"Glu/GABA; groups at different doses (2, 40, 100 mg/kg/d), p<0.05",significantly reduced
same,GABA,GABA; [5],9.66 ± 1.30 nmol/L
same,GABA,GABA; low dose 2 mg/kg/d for 7 days,8.53 ± 1.03 nmol/L
same,GABA,GABA; [6],9.69 ± 0.98 nmol/L
same,GABA content in brain tissues compared with the model group,"GABA; groups at different doses (2, 40, 100 mg/kg/d), p<0.01",significantly increased
same,5-HIAA,5-HIAA; [5],36.61 ± 1.84 ng/g
same,5-HIAA,5-HIAA; low dose 2 mg/kg/d for 7 days,33.79 ± 2.51 ng/g
same,5-HIAA,5-HIAA; [6],36.69 ± 2.00 ng/g
same,5-HIAA content in brain tissues compared with the model group,"5-HIAA; groups at all doses (2, 40, 100 mg/kg/d), p<0.01",significantly increased
same,Sleep duration compared with the model group,[2]; [7],increased significantly
same,Sleep duration,[2]; [5],17.5 ± 3.15 min
same,Sleep duration,[2]; low dose 2 mg/kg/d for 7 days,16.6 ± 9.53 min
same,Sleep duration,[2]; [6],19.9 ± 5.72 min
same,Sleep latency,[2]; [6],298.50 ± 29.08 s
same,5-HT,5-HT; [5],302.55 ± 17.00 ng/g
same,5-HT,5-HT; low dose 2 mg/kg/d for 7 days,271.37 ± 27.58 ng/g
same,5-HT,5-HT; [6],283.18 ± 9.86 ng/g
same,5-HT content in brain tissues compared with the model group,5-HT; [7],significantly increased
same,"Number of autonomous activities, before administration",[3]; high dose group (100 mg/kg/d),248 ± 18.38
same,"Number of autonomous activities, before administration",[3]; low dose group (2 mg/kg/d),249 ± 22.30
same,"Number of autonomous activities, before administration",[3]; medium dose group (40 mg/kg/d),246 ± 16.13
same,Number of autonomous activities after last administration compared with before administration,[3]; [4],significantly decreased
same,"Number of autonomous activities, after last administration",[3]; [5],167 ± 43.35
same,"Number of autonomous activities, after last administration",[3]; low dose 2 mg/kg/d for 7 days,172 ± 26.39
same,"Number of autonomous activities, after last administration",[3]; [6],179 ± 17.43
"COc1ccc2[nH]cc(CCNC(C)=O)c2c1 [Positive drug, melatonin, reference compound]","Body weight, 3rd day of administration",[1]; 10 mg/kg/d,31.33 ± 4.21 g
same,"Body weight, 7th day of administration",[1]; 10 mg/kg/d,33.67 ± 3.80 g
same,"Body weight, 3rd day of administration",[1]; [8],increased significantly
same,"Body weight, 7th day of administration",[1]; [8],increased significantly
same,"Body weight, after molding",[1]; [9],26.26 ± 3.39 g
same,"Body weight, before molding",[1]; [9],26.51 ± 2.23 g
same,Glu,Glu; [10],53.52 ± 7.23 μmol/gprot
same,Glu,Glu; [11],53.52±7.23 μmol/gprot
same,Glu/GABA,Glu/GABA; [10],8.51 ± 1.55
same,Glu/GABA,Glu/GABA; [11],significantly reduced
same,GABA,GABA; [10],6.89 ± 1.11 nmol/L
same,GABA,GABA; [11],6.89 ± 1.11 nmol/L
same,5-HIAA,5-HIAA; [10],37.15 ± 1.56 ng/g
same,5-HIAA,5-HIAA; [11],significantly increased
same,Sleep duration,[2]; 10 mg/kg/d for 7 days,26.4 ± 6.92 min
same,Sleep latency,[2]; 10 mg/kg/d for 7 days,226.00 ± 18.42 s
same,Sleep duration,[2]; [12],increased significantly
same,Sleep latency,[2]; [12],significantly reduced
same,"Number of autonomous activities, after last administration",[3]; 10 mg/kg/d for 7 days,174 ± 20.81
same,"Number of autonomous activities, after last administration",[3]; [12],significantly decreased
same,"Number of autonomous activities, before administration",[3]; [9],267 ± 15.15
